Source: patent US7988950B2, “Contrast agents endowed with high relaxivity for use in magnetic resonance imaging (MRI) which contain a chelating moiety with polyhydroxylated substituents” (Bracco Imaging S.p.A., priority 2004, dated 2011)

Columns and labels:
[1] = Relaxivity determination (r1p) of Gd complexes at 298 K, 20 MHz, pH 7; format: physicochemical
Description: As far as the relaxation enhancement property is concerned, a paramagnetic Gd(III) complex is characterized by its relaxivity (r1p) which represents the increase of the proton relaxation rate of an aqueous solution of the Gd(III) complex in comparison to the proton relaxation rate of neat water (R1^o). The relaxivity is usually measured at 298 K and 20 MHz (0.5 T).
In order to best evaluate the relaxivity properties and the parameters affecting the relaxivity of the agents of the invention, some comparative tests have been performed. In a first experiment, the relaxivity of a number of Gd-based chelated compounds having different molecular weight, all derived from the following [Gd(DTPA-monophosphonate)]^3− basic backbone structure (r1p at 20 MHz and 298K: 6.1 mM^−1s^−1) of formula
Tested compounds include the Gd-complex of the chelating compounds 1b and 2b of the invention (hereinafter Gd-1b and Gd-2b) as well as a number of different derivatives of the aforementioned backbone moiety selected in order to cover a range of molecular weights of up to about 1800 Dalton. The relaxivity of all of the tested compounds were measured at 298 K and 20 MHz and pH 7. The obtained values, listed in table 5 below (together with the structure of the compounds) have also been plotted against the MW of the complexes (see FIG. 1).
A second experiment was performed to test the relaxivity of different compounds of the invention, marketed NSA, known LDA and other systems, all containing one coordinated water molecule (q=1). The data were registered at 298K and 20 MHz and pH=7, and plotted against their corresponding MW. Relaxivity data relating to LDA P760 and P792 (LDA contrast agents) are based on literature cited below.
In addition to the above, please find below as per table 7, other relaxivity values, measured as above indicated, for some other representative compounds of the invention.

[2] = 1/T1 NMRD profiles / relaxivity over a range of magnetic field strengths; format: physicochemical; details: 25° C., 1 mM aqueous solution; from 0.2 to 3 MHz
Description: As an example, the relaxivity profile of the gadolinium complex of the chelating ligand of the invention 2b (hereinafter referred to as Gd-2b), in the above magnetic field range, has been compared with that of a marketed NSA, i.e. Magnevist®, and that of a blood pool agent, i.e. the macromolecular adduct between Gd-DTPA(BOM)3 and BSA (Bovine Serum Albumin) (FIG. 6).
The corresponding profile for the above blood pool agent is quite different.
The stability of the relaxivity properties shown by the compounds of the invention was tested. In a first experiment, the 1/T1 NMRD profiles for some compounds of the invention were acquired over a range of magnetic field strengths ranging from 0.01 to 130 MHz. The profile shown by the Gd-1b chelated compound of the invention is included in FIG. 4, while corresponding profiles for chelated compounds Gd-1c, Gd-2c and Gd-3c are included in FIGS. 5 and 5 bis. A comparison has been also performed for compound Gd-2b over a corresponding profile registered for GD-DTPA (Magnevist®), a marketed NSA, and for GD-DOTA-BSA, a well known blood pool agent.
Conversely, the relaxivity improvement shown by the blood pool agent rapidly falls dawn over the same range of magnetic field strength.

[3] = Table 6, 298K, 20 MHz, pH=7, q=1
[4] = Table 7, measured as above indicated (298 K, 20 MHz)
[5] = Table 5, 298 K, 20 MHz, pH 7, q=1 derivatives of the DTPA-monophosphonate backbone

In the case of `O=C(CCC(C(=O)O)N1CCN(C(CCC(=O)NCC(COC(CO)CO)COC(CO)CO)C(=O)O)CCN(C(CCC(=O)NCC(COC(CO)CO)COC(CO)CO)C(=O)O)CCN(C(CCC(=O)NCC(COC(CO)CO)COC(CO)CO)C(=O)O)CC1)NCC(COC(CO)CO)COC(CO)CO` (stereo not drawn) [Gd-1c], the “R1p” value [1, 3] was 13.84 mM⁻¹ s⁻¹.
In the case of `O=C(O)CN1CCN(CC(=O)O)CCN(CC(=O)O)CCN(CC(=O)O)CC1` [Gd-DOTA], the “R1p” value [1, 3] was 4.7 mM⁻¹ s⁻¹.
For `O=C(O)CN1CCN(C(COCc2ccccc2)C(=O)O)CCN(C(COCc2ccccc2)C(=O)O)CCN(C(COCc2ccccc2)C(=O)O)CC1` (stereo not drawn) [Compound B19406], the “R1p” value [1, 3] was 7.5 mM⁻¹ s⁻¹.
For `O=C(CC[C@@H](C(=O)O)N1CCN([C@@H](CCC(=O)NC(COC2OC(CO)C(O)C(O)C2O)(COC2OC(CO)C(O)C(O)C2O)COC2OC(CO)C(O)C(O)C2O)C(=O)O)CCN([C@@H](CCC(=O)NC(COC2OC(CO)C(O)C(O)C2O)(COC2OC(CO)C(O)C(O)C2O)COC2OC(CO)C(O)C(O)C2O)C(=O)O)CCN([C@@H](CCC(=O)NC(COC2OC(CO)C(O)C(O)C2O)(COC2OC(CO)C(O)C(O)C2O)COC2OC(CO)C(O)C(O)C2O)C(=O)O)CC1)NC(COC1OC(CO)C(O)C(O)C1O)(COC1OC(CO)C(O)C(O)C1O)COC1OC(CO)C(O)C(O)C1O` (stereo partly drawn) [Gd-7c], the “R1p” value [1, 4] was 20.4 mM⁻¹ s⁻¹.
For `O=C(O)CN(CCN(CCN(CC(=O)O)[C@@H](Cc1c[nH]c2ccccc12)C(=O)O)CP(=O)(O)O)C(Cc1c[nH]c2ccccc12)C(=O)O` (stereo partly drawn) [B 22836], the “R1p” value [1, 5] was 7.9 mM⁻¹ s⁻¹.
With `O=C(O)CN1CCN(C(COCc2ccccc2)C(=O)O)CCN(CC(=O)O)CCN(C(COCc2ccccc2)C(=O)O)CC1` (stereo not drawn) [Compound B19236] the “R1p” value [1, 3] was 6.5 mM⁻¹ s⁻¹.
For `O=C(O)CN1CCN(CC(=O)O)CCN(C(COCc2ccccc2)C(=O)O)CCN(CC(=O)O)CC1` (stereo not drawn) [Compound B19106], the “R1p” value [1, 3] was 5.5 mM⁻¹ s⁻¹.
For `CC1(N(CC(=O)O)CC(=O)O)CN(C(CCC(=O)N(CCN(CCC(=O)NC(CO)(CO)CO)CCC(=O)NC(CO)(CO)CO)CCN(CCC(=O)NC(CO)(CO)CO)CCC(=O)NC(CO)(CO)CO)C(=O)O)CCN(C(CCC(=O)N(CCN(CCC(=O)NC(CO)(CO)CO)CCC(=O)NC(CO)(CO)CO)CCN(CCC(=O)NC(CO)(CO)CO)CCC(=O)NC(CO)(CO)CO)C(=O)O)C1` (stereo not drawn) [Gd-15a], the “R1p” value [1, 4] was 16.7 mM⁻¹ s⁻¹.
In the case of `CC(CO)(CO)COCC(CNC(=O)CCC(C(=O)O)N1CCN(C(CCC(=O)NCC(COCC(C)(CO)CO)COCC(C)(CO)CO)C(=O)O)CCN(C(CCC(=O)NCC(COCC(C)(CO)CO)COCC(C)(CO)CO)C(=O)O)CCN(C(CCC(=O)NCC(COCC(C)(CO)CO)COCC(C)(CO)CO)C(=O)O)CC1)COCC(C)(CO)CO` (stereo not drawn) [Gd-2c], the “R1p” value [1, 3] was 15 mM⁻¹ s⁻¹.
For `O=C(O)CN(CCN(CC(=O)O)CC(=O)O)CCN(CC(=O)O)CC(=O)O` [Gd-DTPA], the “R1p” value [1, 3] was 4.7 mM⁻¹ s⁻¹.
With `O=C(O)CN(CCN(CCN(CC(=O)O)[C@@H](COCc1ccccc1)C(=O)O)CP(=O)(O)O)[C@@H](COCc1ccccc1)C(=O)O` [B 22666] the “R1p” value [1, 5] was 7.9 mM⁻¹ s⁻¹.
In the case of `O=C(O)CCC(C(=O)O)N1CCN(Cc2cccc(C(=O)NCC(CNC(=O)C(O)C(O)C(O)C(O)CO)(CNC(=O)C(O)C(O)C(O)C(O)CO)CNC(=O)C(O)C(O)C(O)C(O)CO)c2)CCN(C(CCC(=O)O)C(=O)O)CCN(C(CCC(=O)O)C(=O)O)CC1` (stereo not drawn) [Gd-1d], the “R1p” value [1, 4] was 24 mM⁻¹ s⁻¹.
With `O=C(O)CN(CCN(CCN(CC(=O)O)[C@@H](Cc1ccccc1)C(=O)O)CP(=O)(O)O)[C@@H](Cc1ccccc1)C(=O)O` [B 22606] the “R1p” value [1, 5] was 7.7 mM⁻¹ s⁻¹.
For `O=C(CCC(C(=O)O)N1CCN(C(CCC(=O)NCC(COCC(COC(CO)CO)COC(CO)CO)COCC(COC(CO)CO)COC(CO)CO)C(=O)O)CCN(C(CCC(=O)NCC(COCC(COC(CO)CO)COC(CO)CO)COCC(COC(CO)CO)COC(CO)CO)C(=O)O)CCN(C(CCC(=O)NCC(COCC(COC(CO)CO)COC(CO)CO)COCC(COC(CO)CO)COC(CO)CO)C(=O)O)CC1)NCC(COCC(COC(CO)CO)COC(CO)CO)COCC(COC(CO)CO)COC(CO)CO` (stereo not drawn) [Gd-3c], the “R1p” value [1, 3] was 19.6 mM⁻¹ s⁻¹.
In the case of Gd-DTPA, the “relaxivity profile over magnetic field strength (NMRD)” value [2] was “quite stable though very low”.
